From ChEMBL document CHEMBL5236625, “New class of fused [3,2-b][1,2,4]triazolothiazoles for targeting glioma in vitro” (Bioorg Med Chem Lett, 2023) come the findings set out here.

The structures appear in SMILES notation. The source made the active and inactive calls. The rule behind the calls is not given here.

In data set [1] the test system is C6. Nature of the data set: Cytotoxicity against rat C6 cells assessed as cell viability measured upto 108 hrs by MTT assay. It is filed as functional, cell-based. The note with it: C6, 108 h. On the technique in general: Tetrazolium assays rely on reduction of a dye to a coloured formazan, in cell work by metabolically active cells.
Data set [2] deals with LN-18. Nature of the data set: Cytotoxicity against human LN-18 cells assessed as cell viability measured upto 108 hrs by MTT assay. Format: functional, cell-based. The settings on record: LN-18, 108 h.
The nature of data set [3]: Solubility in DMSO. Format: physicochemical.
Data set [4] relates to C6. Nature of the data set: Inhibition of colony formation in rat C6 cells at 10 to 100 uM measured after 48 hrs by clonogenic assay. It is filed as functional, cell-based. The note with it: dose 10-100 µM.
The subject of data set [5] is LN-18. Nature of the data set: Inhibition of colony formation in human LN-18 cells at 10 to 100 uM measured after 48 hrs by clonogenic assay. Format: functional, cell-based. The settings on record: dose 10-100 µM.
For data set [6], the system named is C6. Nature of the data set: Antimigratory activity against rat C6 cells assessed as rate of cell migration measured at 100 uM by wound healing assay (reference value: 21.95 um/hr). Format: functional.
The subject of data set [7] is LN-18. Put plainly: Antimigratory activity against human LN-18 cells assessed as rate of cell migration measured at 100 uM by wound healing assay (reference value: 24.46 um/hr). It is filed as functional.
Data set [8] relates to C6. Put plainly: Induction of cell cycle arrest in rat C6 cells assessed as cell population in sub-G1 phase at 10 uM (reference value: 60%). It is filed as functional.
Data set [9] relates to LN-18. Put plainly: Induction of cell cycle arrest in human LN-18 cells assessed as cell population in sub-G1 phase at 10 uM (reference value: 44%). Format: functional.
The subject of data set [10] is C6. Put plainly: Induction of apoptosis in rat C6 cells assessed as cell population in […] at 50 to 100 uM (reference value: 2 to 7%). It is filed as functional. The settings on record: dose 50-100 µM.
Data set [11] concerns LN-18. Put plainly: Induction of apoptosis in human LN-18 cells assessed as cell population in […] at 50 to 100 uM (reference value: 2 to 7%). Format: functional. The note with it: dose 50-100 µM.
Another data set is filed under the species Rattus norvegicus. Put plainly: Inhibition of ERK phosphorylation in rat C6 cells by Western blot analysis. It is filed as cell-based. The note with it: dose 50-100 µM. Background: A western blot detects proteins with antibodies after separation by electrophoresis.
The subject of data set [12] is LN-18. Put plainly: Inhibition of ERK phosphorylation in human LN-18 cells by Western blot analysis. It is filed as cell-based. The note with it: dose 10-100 µM.
Data set [13] has as its system C6. Nature of the data set: Inhibition of AKT phosphorylation at Thr308 in rat C6 cells by Western blot analysis. Format: cell-based. The settings on record: dose 10-100 µM.
Data set [14] deals with C6. Nature of the data set: Inhibition of AKT phosphorylation at Ser473 in rat C6 cells by Western blot analysis. Format: cell-based. The note with it: dose 10-100 µM.
The target of data set [15] is T1, Serine/threonine-protein kinase AKT (Homo sapiens) (UniProt P31751+Q9Y243+P31749). Put plainly: Inhibition of AKT phosphorylation at Thr308 in human LN-18 cells by Western blot analysis. Format: cell-based. The note with it: dose 10-100 µM.
The target of data set [16] is T1, Serine/threonine-protein kinase AKT (Homo sapiens). Put plainly: Inhibition of AKT phosphorylation at Ser473 in human LN-18 cells by Western blot analysis. Format: cell-based. The settings on record: dose 10-100 µM.
Data set [17] relates to C6. Nature of the data set: Induction of apoptosis in rat C6 cells assessed as reduction in IRE1 expression at 10 to 100 uM by Western blot analysis. It is filed as functional, cell-based. The note with it: dose 10-100 µM.
For data set [18], the system named is LN-18. Put plainly: Induction of apoptosis in human LN-18 cells assessed as reduction in IRE1 expression at 10 to 100 uM by Western blot analysis. Format: functional, cell-based. The settings on record: dose 10-100 µM.
The test system of data set [19] is C6. Nature of the data set: Induction of apoptosis in rat C6 cells assessed as reduction in XBP1 expression at 10 to 100 uM by Western blot analysis. Format: functional, cell-based. The settings on record: dose 10-100 µM.
Data set [20] concerns LN-18. Nature of the data set: Induction of apoptosis in human LN-18 cells assessed as reduction in XBP1 expression at 10 to 100 uM by Western blot analysis. It is filed as functional, cell-based. The note with it: dose 10-100 µM.
Data set [21] has as its system C6. Put plainly: Induction of apoptosis in rat C6 cells assessed as increase in Bax expression at 10 to 100 uM by Western blot analysis. It is filed as functional, cell-based. The settings on record: dose 10-100 µM.
The test system of data set [22] is LN-18. Put plainly: Induction of apoptosis in human LN-18 cells assessed as increase in Bax expression at 10 to 100 uM by Western blot analysis. It is filed as functional, cell-based. The note with it: dose 10-100 µM.
Data set [23] deals with C6. Nature of the data set: Induction of cell cycle arrest in rat C6 cells assessed as cell population in G2-M phase at 10 uM (reference value: 19.3%). Format: functional.
Data set [24] has as its system LN-18. Put plainly: Induction of cell cycle arrest in human LN-18 cells assessed as cell population in G2-M phase at 10 uM (reference value: 39.4%). It is filed as functional.

As a reminder, the IC50 is the concentration that gives 50% inhibition.

T1 sequence (P31749 whole entry, looked up): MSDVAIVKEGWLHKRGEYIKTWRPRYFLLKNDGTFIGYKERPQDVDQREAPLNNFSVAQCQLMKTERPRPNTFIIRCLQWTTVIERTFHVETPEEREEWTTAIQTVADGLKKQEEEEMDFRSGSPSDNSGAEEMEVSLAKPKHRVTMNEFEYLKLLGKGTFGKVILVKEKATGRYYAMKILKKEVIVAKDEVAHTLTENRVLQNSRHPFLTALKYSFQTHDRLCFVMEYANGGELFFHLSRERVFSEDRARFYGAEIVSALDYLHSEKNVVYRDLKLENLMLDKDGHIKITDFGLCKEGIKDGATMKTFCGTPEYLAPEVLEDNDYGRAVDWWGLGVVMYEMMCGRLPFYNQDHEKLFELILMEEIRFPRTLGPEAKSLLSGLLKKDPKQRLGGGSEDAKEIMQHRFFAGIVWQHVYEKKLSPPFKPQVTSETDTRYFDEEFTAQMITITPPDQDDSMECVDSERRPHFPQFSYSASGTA
T1 sequence (P31751 whole entry, looked up): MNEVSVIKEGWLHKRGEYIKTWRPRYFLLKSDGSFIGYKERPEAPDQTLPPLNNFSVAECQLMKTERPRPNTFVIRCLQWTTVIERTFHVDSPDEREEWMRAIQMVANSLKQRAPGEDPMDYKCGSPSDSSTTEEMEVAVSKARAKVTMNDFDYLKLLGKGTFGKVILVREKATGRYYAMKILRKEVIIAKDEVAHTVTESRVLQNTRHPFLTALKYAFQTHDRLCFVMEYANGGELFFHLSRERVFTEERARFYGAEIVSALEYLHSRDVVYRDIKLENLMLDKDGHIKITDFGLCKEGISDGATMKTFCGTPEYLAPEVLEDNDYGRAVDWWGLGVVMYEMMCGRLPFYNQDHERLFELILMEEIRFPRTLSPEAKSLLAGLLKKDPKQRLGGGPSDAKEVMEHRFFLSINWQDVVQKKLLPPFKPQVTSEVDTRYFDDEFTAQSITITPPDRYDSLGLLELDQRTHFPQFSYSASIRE
T1 sequence (Q9Y243 whole entry, looked up): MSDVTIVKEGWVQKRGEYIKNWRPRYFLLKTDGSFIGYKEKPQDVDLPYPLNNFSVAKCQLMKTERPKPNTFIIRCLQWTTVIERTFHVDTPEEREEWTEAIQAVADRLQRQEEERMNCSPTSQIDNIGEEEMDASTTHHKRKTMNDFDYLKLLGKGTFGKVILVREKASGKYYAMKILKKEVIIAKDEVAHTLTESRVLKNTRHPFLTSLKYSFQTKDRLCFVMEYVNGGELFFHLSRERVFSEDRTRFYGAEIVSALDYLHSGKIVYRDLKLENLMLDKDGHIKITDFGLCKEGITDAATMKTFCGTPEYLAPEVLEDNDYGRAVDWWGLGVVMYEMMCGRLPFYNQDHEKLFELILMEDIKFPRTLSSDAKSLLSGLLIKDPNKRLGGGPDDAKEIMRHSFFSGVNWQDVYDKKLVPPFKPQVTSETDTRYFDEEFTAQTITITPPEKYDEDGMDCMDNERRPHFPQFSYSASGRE

Regarding `O=C1c2ccccc2C(=O)N1c1nc2scc(-c3ccc(-c4ccccc4)cc3)n2n1`, the 50% inhibitory concentration (IC50) in the data set with C6 [1] is 5.79 µM; with LN-18 [2], 8.97 µM. The solubility result in [3] is “Insoluble”.

For the compound `O=[N+]([O-])c1ccc(-c2csc3nc(/N=C/c4ccc(Cl)cc4)nn23)cc1`, the IC50 in the data set with C6 [1] came to 8.74 µM; in the data set on LN-18 [2], 12.6 µM. The inhibition entry in the data set with C6 [4] and in the data set with LN-18 [5] was “Active” throughout. Also, the Activity worked out at 13.6 um/hr in the data set on C6 [6]; 15.04 um/hr in the data set with LN-18 [7]; 66.5% with C6 [8]; 50% in the data set with LN-18 [9]; 35% with C6 [10]; 35% in the data set with LN-18 [11]. The inhibition entry (in the data set listed under Rattus norvegicus; in the data set with LN-18 [12]; in the data set with C6 [13]; in the data set on C6 [14]; in data set [15]; in data set [16]) was “Dose-Dependent Effect” throughout. Further, the result in the data set on C6 [17], in the data set with LN-18 [18], with C6 [19], with LN-18 [20], in the data set with C6 [21] and in the data set with LN-18 [22] was Active.

Turning to `O=C1c2ccccc2C(=O)N1c1nc2scc(-c3ccc(Br)cc3)n2n1`, the IC50 was found to be 8.09 µM in the data set on C6 [1] and 12.7 µM in the data set on LN-18 [2]. Besides, the inhibition result in the data set with C6 [4] and with LN-18 [5] was “Active” each time. Also, the Activity amounted to 8.96 um/hr in the data set with C6 [6]; 14.36 um/hr in the data set on LN-18 [7]; 31.9% in the data set with C6 [23]; 54.9% in the data set on LN-18 [24]; 47% with C6 [10]; 47% with LN-18 [11]. Further, the inhibition result (in the data set listed under Rattus norvegicus; in the data set on LN-18 [12]; in the data set on C6 [13]; in the data set with C6 [14]; in [15]; in data set [16]) was “Dose-Dependent Effect” in each case. Also, the outcome in the data set with C6 [17], in the data set on LN-18 [18], in the data set on C6 [19], with LN-18 [20], in the data set with C6 [21] and in the data set with LN-18 [22] was Active.

For the compound `COc1ccc(-c2csc3nc(/N=C/c4ccc(Cl)cc4Cl)nn23)cc1`, the IC50 turned out to be 7.56 µM in the data set with C6 [1] and 21.5 µM in the data set on LN-18 [2]. Also, the solubility entry in data set [3] was “Insoluble”.
